pEC50: −log10 of the molar value. Values joined by “and” are separate entries in the source; they are usually repeats but may differ in a detail not shown here. Identical values can stand only once. Like-named read-outs stand apart in the source and are kept apart here.
What was measured:
[1] = test system: photosystem II complexes in wheat leaves from WLSA; assay: Two-dimensional clear-native/SDS electrophoresis of membrane complexes; design: species or system Triticum aestivum; details: 10 μM, 5 days in the dark
Protocol: Leaves from WLSA were frozen at −80°C and then dried overnight by lyophilization at 5°C. Dried material was homogenized by bead-beating (2 × 10 s) with 2.5 mm metal beads (Mini-Beadbeater-16, BioSpec, USA). The resulting powder was mixed with a thylakoid buffer, pH 6.5, containing 25 mM MES, 10 mM MgCl2, 10 mM CaCl2, and 25% glycerol and bead-beaten (4 × 10 s). The obtained cell extract was centrifuged, after which the insoluble fraction was transferred into a new tube and solubilized with 2% dodecyl-β-maltoside for 15 min on ice. The solution was centrifuged at 30,000 × g for 10 min to remove any non-solubilized cell debris and the obtained solubilized membrane proteins were separated by electrophoresis using a 4 to 12% polyacrylamide clear native gel (Wittig et al., [2007]). Individual components of protein complexes were resolved by incubating the gel strip from the first electrophoresis in 2% SDS and 1% dithiothreitol for 30 min at room temperature, after which the proteins were separated in a second dimension by SDS-electrophoresis using a denaturing 12 to 20% polyacrylamide gel containing 7 M urea (Dobáková et al., [2009]). Proteins were stained with Coomassie Brilliant Blue, and individual protein components were identified by comparing the protein pattern with previously published results (Pagliano et al., [2012]).

[2] = test system: cytokinin-dependent tobacco callus; assay: Tobacco callus bioassay; type: cell-based
Protocol: Tobacco callus, Amaranthus and Wheat leaf senescence assay (WLSA) were performed as described by Holub et al. ([1998]) including the number of repetitions in each assay. An exception to the published protocols was that the tobacco callus assay was performed in 6-well microtiter plates (with each well containing 3 ml of Murashige Skoog medium into which 0.1 g of callus was added). Each compound was tested at least twice in each assay and in a wider concentration range to obtain concentration-dependent activity curves. IC50 means compound concentration at which chlorophyll degradation is inhibited by 50% and EC50 means half the maximal effective concentration.

[3] = test system: detached wheat leaves (membrane lipid peroxidation); assay: TBARS content (lipid peroxidation) in leaves from WLSA; type: cell-based, Triticum aestivum; details: 5 days in the dark, DMSO control = 100%
Protocol: Four leaf segments of combined weight of 100 mg from WLSA (5 days in the dark) were used for the determination of TBARS. Each sample was done in five repetitions (5 × 100 mg). The peroxidation of leaf membrane lipids was determined as described by Kováčik et al. ([2006]), with minor modifications—wheat leaves were extracted with 80% methanol and the trichloroacetic acid content was decreased to 0.1%.

[4] = target: T1, AHK3 (Arabidopsis thaliana, UniProt Q9C5U1); assay: Cytokinin receptor activation assay in E. coli (AHK3); type: cell-based
T1 construct: expressed in transfected cells; host or cells: Escherichia coli strain KMI001, plasmid pSTV28-AHK3
T1 sequence (Q9C5U1 1-1036): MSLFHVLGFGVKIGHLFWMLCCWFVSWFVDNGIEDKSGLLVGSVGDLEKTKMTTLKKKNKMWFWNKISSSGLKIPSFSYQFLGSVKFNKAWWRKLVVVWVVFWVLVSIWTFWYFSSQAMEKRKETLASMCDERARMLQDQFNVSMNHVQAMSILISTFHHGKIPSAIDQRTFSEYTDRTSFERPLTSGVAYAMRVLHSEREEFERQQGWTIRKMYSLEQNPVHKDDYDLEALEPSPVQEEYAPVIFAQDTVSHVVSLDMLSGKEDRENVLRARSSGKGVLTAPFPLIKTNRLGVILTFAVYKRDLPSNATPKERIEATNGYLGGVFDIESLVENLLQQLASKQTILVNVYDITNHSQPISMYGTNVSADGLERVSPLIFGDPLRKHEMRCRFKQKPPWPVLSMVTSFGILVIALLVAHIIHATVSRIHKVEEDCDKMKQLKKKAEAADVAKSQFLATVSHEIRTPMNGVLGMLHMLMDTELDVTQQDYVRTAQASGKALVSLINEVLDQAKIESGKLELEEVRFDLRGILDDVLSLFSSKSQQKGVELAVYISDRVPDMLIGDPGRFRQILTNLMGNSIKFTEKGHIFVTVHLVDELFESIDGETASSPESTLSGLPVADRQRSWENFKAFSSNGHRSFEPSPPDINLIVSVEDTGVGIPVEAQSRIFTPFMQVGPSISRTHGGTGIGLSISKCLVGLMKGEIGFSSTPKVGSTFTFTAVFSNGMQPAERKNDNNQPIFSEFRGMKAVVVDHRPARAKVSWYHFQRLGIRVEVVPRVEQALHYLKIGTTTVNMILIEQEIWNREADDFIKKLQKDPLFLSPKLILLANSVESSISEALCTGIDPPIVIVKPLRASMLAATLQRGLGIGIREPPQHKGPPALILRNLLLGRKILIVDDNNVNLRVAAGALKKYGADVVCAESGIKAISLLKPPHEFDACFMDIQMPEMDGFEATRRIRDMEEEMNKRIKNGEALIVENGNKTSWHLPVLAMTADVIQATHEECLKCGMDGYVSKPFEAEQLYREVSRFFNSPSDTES
Text: The activity of this enzyme is finally measured in the assay and corresponds to the ability of the tested compound to activate this cytokinin receptor. Both assays were done at least twice and the presented graphs are the most representative examples.

[5] = test system: detached wheat leaves (ethylene production); assay: Ethylene accumulation assay; type: cell-based, Triticum aestivum; details: 10 μM, sealed vials; for ethylene production, fold of the control: days 3–6, dark; for ethylene production, fold of untreated leaves: first 3 days, dark
Protocol: Two detached leaf tips (final weight 50 mg) from 7-day-old wheat plants were incubated in 10 mL gas chromatography vials with either 1 mL of 0.1% DMSO (control), 10 μM ASES or 10 μM TDZ, and kept in the dark for 6 days at 25°C (1 day longer than the classical WLSA). On the third day, 1 mL of air from each vial was collected and the vials were then left open for 1 h and aerated with fresh air. Another 1 mL of air was collected from each vial on the sixth day. The amount of ethylene in each sample was determined using gas chromatography and the flame ionization detector method described by Fišerová et al. ([2001]).

SMILES	level of PSII-LHCII supercomplexes [1]	membrane complexes / level of dimeric PSII in senescent leaves [1]	cell division stimulatory effect, times lower than that of TDZ [2]	pEC50 ([2]; Nicotiana tabacum, half the maximal effective concentration, N.A. = not active, read-out: Tobacco callus bioassay (EC50))	Tobacco callus bioassay (EC50, μM) ([2]; half the maximal effective concentration, N.A. = not active)	TBARS content (relative %) ([3]; 0.01 μM)	TBARS content (relative %) ([3]; 0.1 μM)	TBARS content (relative %) ([3]; 1 μM)	TBARS content (relative %) ([3]; 10 μM)	TBARS content (relative %) ([3]; 100 μM, fresh control = 0)	pEC50 ([4]; E. coli bacterial receptor assay, read-out: AHK3 receptor activation EC50)	ethylene production, fold of the control [5] [fold]	ethylene production, fold of untreated leaves [5] [fold]	EC50 ([2]; Nicotiana tabacum, read-out: Tobacco callus bioassay (EC50, μM)) [µM]	pEC50 [4]
COCCNC(=O)Nc1cnns1 [ASES, 1-(2-methoxy-ethyl)-3-1,2,3-thiadiazol-5-yl-urea]	even higher level of PSII-LHCII supercomplexes than we observed for fresh control	very similar to those of the fresh control, including high levels of dimeric PSII	more than 700 times	6.17	sub-micromolar range	105 (±5) %	91 (±10) %	47 (±4) %	31 (±5) %	24 (±6) % and 24%	< 4.30	1.22	1.36	–	–
O=C(Nc1ccccc1)Nc1cnns1 [TDZ, 1-phenyl-3-(1,2,3-thiadiazol-5-yl)urea, reference compound]	completely lost	–	–	–	–	101 (±5) %	80 (±3) %	71 (±6) %	68 (±8) %	55 (±10) %	–	2.18	2.02	0.001	6.98

From article PMC6142817, “New Urea Derivatives Are Effective Anti-senescence Compounds Acting Most Likely via a Cytokinin-Independent Mechanism” (Frontiers in Plant Science, 2018)
